Experimental data as given in PubChem BioAssay AID463206 (Broad Institute, 2010).
Active and inactive are the calls of the source.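 Rule for the calls: active = caspase luminescence falls with dose and the half-maximal concentration AC50 from the fitted curve is at or below a set limit; inconclusive = flat fit at 30 to 70% signal loss, or invalid fit; inactive = AC50 above the limit, or signal rises instead.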

The compounds below were run on INS-1E cytokine-induced caspase-3/7, Caspase-Glo luminescence, 48 h (assay: inhibitors of cytokine-induced caspase-3/7 activity, dose response, orthogonal assay for beta-cell apoptosis protection project, INS-1E rat cells, luminescence (AID 463206)).

| Structure (SMILES) | AC50 |
| --- | --- |
| Fc1ccc(Oc2nc(-c3ccccn3)nc3ccccc23)cc1 | > 26 µM (inactive) |
| CN(C1=C(NC(=O)c2ccccc2)C(=O)c2ccccc2C1=O)C1CCS(=O)(=O)C1 (stereo not given) | > 26 µM (inactive) |
| O=C(c1ccco1)c1coc2c1cc(O)c1ccccc12 | > 26 µM (inactive) |
| Cc1ccc(C(=O)NC2CCCc3c2cnn3-c2ccc(F)cc2F)cn1 (stereo not given) | > 26 µM (inactive) |
| Cn1nccc1C(=O)NC1CCCc2c1cnn2-c1ccccc1F (stereo not given) | > 26 µM (inactive) |
| Cc1cc(C)cc(Oc2cc(NC(=O)c3cn(C)nc3C)cc([N+](=O)[O-])c2)c1 | > 26 µM (inactive) |
| Brc1ccccc1CN1CCN(Cc2c[nH]c3ccccc23)CC1 | > 26 µM (inactive) |
| Cc1ccc(S(=O)(=O)/N=C2\C(=O)c3ccccc3C([O-])=C2n2cc[n+](CCC(C)C)c2)cc1 | > 26 µM (inactive) |
| COc1ccc2nc(C)cc(N/N=C/c3ccc(F)cc3)c2c1 | > 26 µM (inactive) |
| CCOc1cc(N2CCOCC2)c(OCC)cc1NC(=O)COc1cccc2cccnc12 | > 26 µM (inactive) |
| C/C(=N\Nc1ccc2nncn2n1)c1ccccn1 | > 26 µM (inactive) |
| Cc1ccc(S(=O)(=O)/N=C2\C=C(Nc3cccc(C(=O)O)c3)C(=O)c3ccccc32)c(C)c1 | > 26 µM (inactive) |
| CCCOc1cc(NCc2ccccc2)c2ncn(C(C)C)c2c1 | > 26 µM (inactive) |
| Cc1ccc(-c2nc(NC(=O)c3nn(C)cc3[N+](=O)[O-])sc2C)cc1C | > 26 µM (inactive) |
| COc1cc(-c2nc3ccc(C)cn3c2NCc2ccccc2)ccc1-c1cccc(Cl)c1 | > 26 µM (inactive) |
| Cc1cc(OCC(=O)N(C)Cc2ccccc2)ccc1Cl | > 26 µM (inactive) |
| O=C(CNc1cccc2ccccc12)N/N=C/c1ccc([N+](=O)[O-])o1 | > 26 µM (inactive) |
| COc1ccc(C(NC(C)=O)c2cc(Cl)c3cccnc3c2O)cc1OC (stereo not given) | > 26 µM (inactive) |
| Nc1ccc(Br)cc1-c1nc2ccccc2[nH]c1=O | > 26 µM (inactive) |
| CCOC(=O)c1nc(NNC(=O)c2ccc([N+](=O)[O-])cc2)sc1C | > 26 µM (inactive) |
| COc1ccc(S(=O)(=O)Nc2ccc3oc(C)c(C(C)=O)c3c2)cc1 | 22.6 µM |
| CCC(=O)N1c2ccc(S(=O)(=O)N3CCN(c4ccc([N+](=O)[O-])cc4)CC3)cc2CC1C (stereo not given) | > 26 µM (inactive) |
| COc1cccc(/C=N/NC(=O)c2cc(-c3ccccn3)nc3ccccc23)c1O | > 26 µM (inactive) |
| CC(=O)c1c(C)[nH]c(C(=O)OCc2cccc(Cl)c2)c1C | > 12 µM (inactive) |

| Structure (SMILES) | AC50 |
| --- | --- |
| O=C(N/N=C/c1sc2ccccc2c1O)c1ccccc1 | > 26 µM (inactive) |
| COc1ccccc1N(CC(=O)N/N=C/c1c(O)ccc2ccccc12)S(C)(=O)=O | > 26 µM (inactive) |
| Cc1cc(C)c(C)c(S(=O)(=O)N2CCN(c3ncnc4ccccc34)CC2)c1C | > 26 µM (inactive) |
| Nc1c(C(=O)Nc2ccc(S(=O)(=O)N3CCCC3)cc2)sc2nc3cc4c(cc3cc12)CCC4 | > 26 µM (inactive) |
| Cc1ccccc1NC1=C/C(=N\S(=O)(=O)c2ccc(C(=O)O)cc2)c2ccccc2C1=O | > 26 µM (inactive) |
| Oc1ccc(N=Nc2ccc3c(c2)OCCO3)c2ncccc12 | > 26 µM (inactive) |
| Cc1cc(-c2ccccc2)cc(C)[n+]1Cc1ccccc1 | > 26 µM (inactive) |
| COc1cc(OC)c2cc(C(=O)N/N=C/c3ccccc3O)[nH]c2c1 | > 26 µM (inactive) |
| CC1=C(CO)C(=O)OC([C@@H](C)C2CC[C@H]3C4C[C@H]5O[C@]56[C@@H](O)C=CC(=O)[C@]6(C)C4CC[C@]23C)C1 (stereo not given in full) | > 26 µM (inactive) |
| Cc1ccc(C)c(NC(=S)NC(NC(=O)Cc2cccc3ccccc23)C(Cl)(Cl)Cl)c1 (stereo not given) | > 26 µM (inactive) |
| Cc1cccc2nc(CSc3nc4[nH]ncc4c(=O)n3-c3cccc(Cl)c3)cc(=O)n12 | > 26 µM (inactive) |
| O=C(N/N=C/c1ccccc1O)c1cccc(C(F)(F)F)c1 | > 26 µM (inactive) |
| CCOc1ccccc1NC(=O)C(=O)N/N=C/c1cc(Br)ccc1O | > 26 µM (inactive) |
| C=CCn1nc([N+](=O)[O-])nc1Sc1cccc2cccnc12 | > 26 µM (inactive) |
| CC(=O)c1c(C)[nH]c(C(=O)OCC(=O)Nc2ccc(Cl)cc2[N+](=O)[O-])c1C | > 26 µM (inactive) |
| CC1(C)CCN2CCC(C)(C)c3c(O)ccc1c32 | > 26 µM (inactive) |
| COc1ccc(/C(C)=N/Nc2nc(C)cc(-c3ccccc3)n2)cc1 | > 26 µM (inactive) |
| Nc1c(Cl)ncnc1N/N=C/c1ccccn1 | > 26 µM (inactive) |
| Cc1ccc2[nH]c(=O)c(C3C(C#N)=C(N)Oc4c3ccc3cccnc43)cc2c1 (stereo not given) | > 26 µM (inactive) |
| CCCCC[n+]1ccn(C2=C([O-])c3ccccc3C(=O)/C2=N\S(=O)(=O)c2ccc(Cl)cc2)c1 | > 26 µM (inactive) |
| CCN(CC)CCOc1ccc2c(c1)C(=NO)c1cc(OCCN(CC)CC)ccc1-2 | 6.61 µM |
| Fc1ccc(CN(Cc2ccccc2)C(c2cccs2)c2nnnn2C2CCCCC2)cc1 (stereo not given) | > 26 µM (inactive) |
| Cc1ccc2nc(NNC(=O)c3ccc(S(=O)(=O)N4CCc5ccccc5C4)cc3)sc2c1 | > 26 µM (inactive) |
| Cc1cccc2cc(-c3ccccc3)c(-c3ccccc3)c[n+]12 | > 26 µM (inactive) |

| Structure (SMILES) | AC50 |
| --- | --- |
| N#CC(C#N)=C(Nc1ccc(F)cc1)SCc1cccc(F)c1 | > 26 µM (inactive) |
| COc1ccc(OC)c(NC(=O)CN(Cc2ccc(F)cc2)C2CCCCC2)c1 | > 26 µM (inactive) |
| COc1cccc(C(=O)Oc2c(Br)cc(Br)cc2/C=N/NC(=O)c2cc(C)[nH]n2)c1 | > 26 µM (inactive) |
| COc1ccc(C)cc1NS(=O)(=O)c1ccc(NC(=O)CN(c2cc([N+](=O)[O-])ccc2C)S(C)(=O)=O)cc1 | > 26 µM (inactive) |
| Oc1ccc(-[n+]2c(-c3ccccc3)cc(-c3ccccc3)cc2-c2ccccc2)cc1 | > 26 µM (inactive) |
| CCCCCCOC(=O)C[N+](C)(C)CCOC1CC2CCC1(C)C2(C)C (stereo not given) | > 26 µM (inactive) |
| CCN(CC)CCCNC1=C(Cl)C(=O)c2ccccc2C1=O | > 26 µM (inactive) |
| COc1ccc(CC(=O)Nc2cccc(S(=O)(=O)N3CCCCCC3)c2)cc1OC | > 26 µM (inactive) |
| Cc1ccccc1OC1C(=O)N(Cc2ccc3c(c2)OCO3)C1c1sccc1C (stereo not given) | > 26 µM (inactive) |
| O=C(NCc1cccnc1)/C(=C/c1ccc(-c2ccc(Cl)cc2)o1)S(=O)(=O)c1ccccc1 | > 26 µM (inactive) |
| O=C(N/N=C/c1cnc(N2CCCCC2)s1)c1ccc(C(F)(F)F)cc1 | > 26 µM (inactive) |
| COCCn1c(SCC(=O)/C=C2\N(C)c3ccccc3C2(C)C)nnc1-c1ccncc1 | > 26 µM (inactive) |
| COc1ccc(CN2CCN(CCSc3ccc(C)cc3)CC2)c(OC)c1OC | > 26 µM (inactive) |
| CCN(CC)c1ccc(N=C2C(=O)Nc3ccccc32)cc1 | > 26 µM (inactive) |
| Cc1cc(/C=N/n2cnnc2)c(C)n1-c1ccc(OCc2ccc(Cl)cc2)cc1 | > 26 µM (inactive) |
| Cc1[nH]c(N=Nc2ccccc2)nc1N=Nc1ccccc1 | > 26 µM (inactive) |
| Cc1nn(C)c(C)c1CN(Cc1nc(CCC(C)C)no1)C(C)C | > 26 µM (inactive) |
| O=C(NCCc1ccccc1)[C@@H]1CC=C[C@@H]2CCN(Cc3ccc(Cl)c(Cl)c3)C(=O)[C@@H]21 | > 12 µM (inactive) |
| Oc1[nH]c2ccc(Br)cc2c1N=NC(=S)N1CCOCC1 | > 26 µM (inactive) |
| C/C(=N\NC(=O)c1cc(C2CC2)nc2ccccc12)c1ccc(O)cc1O | > 26 µM (inactive) |
| Cc1nc2ccccc2cc1OCc1ccc(F)cc1 | > 26 µM (inactive) |
| O=[N+]([O-])c1cccc2c(N3CCCC3)ccnc12 | > 26 µM (inactive) |
| Cc1ccc(C(=O)N/C(=C\c2ccc(-c3ccccc3[N+](=O)[O-])o2)C(=O)NCCCN2CCOCC2)cc1 | > 26 µM (inactive) |
| Cc1ccc(NC(=O)c2c(C(F)(F)F)nn(C)c2SCc2cccc(C(F)(F)F)c2)cc1C | > 26 µM (inactive) |

| Structure (SMILES) | AC50 |
| --- | --- |
| CCOC(=O)c1cnc2ccc(OCC)cc2c1N1CCN(c2ccccc2)CC1 | > 12 µM (inactive) |
| CSc1nc(N)nc2c1ncn2CC(=O)N1CCN(Cc2c(C)cc(C)cc2C)CC1 | > 26 µM (inactive) |
| Cc1c(/C=N/Nc2nc3ccccc3[nH]2)c2ccccc2n1C | > 26 µM (inactive) |
| S=C(NCc1ccc(Cl)cc1)NC12CC3CC(CC(C3)C1)C2 | > 26 µM (inactive) |
| CCOC(=O)C(=Cc1ccc(Br)cc1)C(=O)OCC | > 26 µM (inactive) |
| FC(F)(F)c1cccc(-c2nc3nc(Cl)c(Cl)nc3[nH]2)c1 | > 26 µM (inactive) |
| O=C(N/N=C/c1cc(Br)cc(Br)c1O)c1ccncc1 | > 26 µM (inactive) |
| CS(=O)(=O)c1ncc(Cl)c(C(=O)Nc2ccc(OC(F)F)cc2)n1 | > 26 µM (inactive) |
| Cc1ccc(C)c(N2CCN(C(=O)CCCOc3cc(=O)n(C)c4ccccc34)CC2)c1 | > 12 µM (inactive) |
| Cn1nnnc1N=N/C(=N/Nc1ccccc1)c1ccccc1 | > 12 µM (inactive) |
| CCOc1cc(S(=O)(=O)NCc2ccncc2)ccc1Cl | > 26 µM (inactive) |
| COc1cc(C(=O)N/N=C(\C)c2ccccn2)cc(OC)c1OC | > 26 µM (inactive) |
| Cc1ccccc1NC(=S)N/N=C/c1ccc(O)cc1O | > 26 µM (inactive) |
| Cc1ccc(NC(=O)c2cc(S(=O)(=O)NCCC3=CCCCC3)ccc2F)cc1 | > 26 µM (inactive) |
| Oc1ccc(Br)cc1-c1cc(-c2ccc(Cl)cc2)n[nH]1 | > 26 µM (inactive) |
| COc1ccc(CCNc2cc(N3CCN(C(=O)c4ccccc4OC)CC3)ccc2[N+](=O)[O-])cc1OC | > 26 µM (inactive) |
| NS(=O)(=O)c1ccc(N/N=C2/CCCCC2C2CCCCC2)c([N+](=O)[O-])c1 (stereo not given) | > 12 µM (inactive) |
| Cc1ccccc1OCCn1c(C)nc2ccccc21 | > 26 µM (inactive) |
| O=C(NCc1cccnc1)c1ccc([N+](=O)[O-])cc1 | > 26 µM (inactive) |
| Cc1cc(C)c2c(N)c3cccc(C)c3nc2n1 | 4.47 µM |
| O=C(c1ccc(Cl)cc1)C(CN1CCCCC1)c1ccccc1 (stereo not given) | > 26 µM (inactive) |
| CC(=O)Nc1ccc(S(=O)(=O)NC2=C(N3CCN(c4ccc(F)cc4)CC3)C(=O)c3ccccc3C2=O)cc1 | > 26 µM (inactive) |
| O=C(N/N=C/c1cccnc1)c1ccccc1NS(=O)(=O)c1cccs1 | > 26 µM (inactive) |
